What was measured:
Assay in all cases: cell viability (% survival relative to DMSO control); higher = less cytotoxic
Conditions in all cases: 72 h
[1] = system: Mono-Mac-6
Description: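 8x8 drug-combination matrices (0–5000 nM; rosiglitazone and lestaurtinib 0–1000 nM) were run in Mono-Mac-6 cells for 72 h with CellTiter-Glo read-out. Survival is normalised to DMSO and 10 µM bortezomib and clipped at 100%.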

[2] = system: BV-173
Description: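 8x8 drug-combination matrices (0–5000 nM; rosiglitazone and lestaurtinib 0–1000 nM) were run in BV-173 cells for 72 h with CellTiter-Glo read-out. Survival is normalised to DMSO and 10 µM bortezomib and clipped at 100%.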

[3] = system: MV4-11
Description: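 8x8 drug-combination matrices (0–5000 nM; rosiglitazone and lestaurtinib 0–1000 nM) were run in MV4-11 cells for 72 h with CellTiter-Glo read-out. Survival is normalised to DMSO and 10 µM bortezomib and clipped at 100%.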

CN(CCOc1ccc(Cc2sc(O)nc2O)cc1)c1ccccn1 [Rosiglitazone] + c1cc(-c2cnn3cc(-c4ccc(OCCN5CCCCC5)cc4)cnc23)ccn1 [Dorsomorphin]
cell viability [%]
Conditions | drug1 concentration 1 nM | drug1 concentration 5 nM | drug1 concentration 10 nM | drug1 concentration 50 nM | drug1 concentration 100 nM | drug1 concentration 500 nM | drug1 concentration 1000 nM
[1], drug2 concentration 5 nM | > 100 | > 100 | 93 | > 100 | 89 | 49.2 | 33.8
[1], drug2 concentration 10 nM | > 100 | 85.1 | 84.3 | 84.5 | 76 | 36.1 | 32.6
[1], drug2 concentration 50 nM | 87.3 | 81.8 | 78.8 | 94.7 | 85.6 | 47.2 | 33.5
[1], drug2 concentration 100 nM | 68.8 | > 100 | 84.1 | 74.5 | 81.5 | 28.7 | 31.1
[1], drug2 concentration 500 nM | 78.1 | 59.9 | 54.8 | 60.7 | 53.5 | 22.8 | 6.36
[1], drug2 concentration 1000 nM | 42.4 | 38.6 | 35.9 | 47.5 | 37.7 | 11.6 | 9.67
[1], drug2 concentration 5000 nM | 6.04 | 9.54 | 9.61 | 9.94 | 12.2 | 5.66 | 12.4
[2], drug2 concentration 5 nM | > 100 | > 100 | > 100 | > 100 | > 100 | > 100 | 91.8
[2], drug2 concentration 10 nM | > 100 | > 100 | > 100 | 97.8 | > 100 | > 100 | > 100
[2], drug2 concentration 50 nM | 58.5 | > 100 | > 100 | > 100 | > 100 | > 100 | > 100
[2], drug2 concentration 100 nM | > 100 | 99.4 | > 100 | 77.2 | > 100 | > 100 | > 100
[2], drug2 concentration 500 nM | > 100 | > 100 | 94.2 | > 100 | > 100 | 98.4 | 95.3
[2], drug2 concentration 1000 nM | 91.7 | > 100 | 62.5 | > 100 | > 100 | > 100 | > 100
[2], drug2 concentration 5000 nM | 75.2 | 85 | 99.8 | 93.5 | 97.2 | > 100 | > 100
[3], drug2 concentration 5 nM | 96.5 | > 100 | > 100 | 98.4 | > 100 | > 100 | > 100
[3], drug2 concentration 10 nM | > 100 | 97.3 | > 100 | 93.5 | > 100 | 83.4 | > 100
[3], drug2 concentration 50 nM | > 100 | 98.2 | > 100 | > 100 | 84.9 | > 100 | > 100
[3], drug2 concentration 100 nM | 98.3 | 98.1 | 99.6 | > 100 | > 100 | > 100 | 85.3
[3], drug2 concentration 500 nM | 99 | 45.9 | 46.8 | 45.7 | 49 | 13 | 43.8
[3], drug2 concentration 1000 nM | 26.1 | 20.7 | 21.6 | 23.8 | 7.5 | 23.4 | 16.8
[3], drug2 concentration 5000 nM | 2.86 | 4.57 | 4.91 | 7.17 | 6.15 | 6.58 | 5.32
